# Assay results taken from paper PMC9611727, “Optimization of a Novel Mandelamide-Derived Pyrrolopyrimidine Series of PERK Inhibitors” (Pharmaceutics, 2022).
# Tests used:
# [1] = Mouse plasma PK after oral gavage; format: in vivo; conditions: female, CD1, mouse, mice, 10 mg/kg PO
# Experimental: For PK analysis of pyrrolopyrimidine analogs in mouse, rat, and dog plasma, the oral formulation was prepared as a solution containing 20% (w/v) Captisol in 25 mM NaH2PO4 buffer (pH 2). Compounds were administered orally by gavage at 10 mg/kg to female CD1 mice. After dosing, plasma samples were collected to characterize the PK profiles at 0.25, 0.5, 1, 2, 4, 8, 12 and 24 h post-dose. The plasma concentration of compound was determined by protein precipitation with acetonitrile and liquid chromatography with mass spectrometric detection (LC-MS/MS). Parameters were estimated using Phoenix (WinNonlin) pharmacokinetic software version 6.1.0 using a non-compartmental approach consistent with the oral route of administration. PK analysis of 26 in plasma and pancreas followed a similar analytical method as above, with minor modifications. Compound 26 was suspended in a vehicle consisting of 0.5% methylcellulose (400 cP) and 0.1% Tween80 in water and administered to BALB/c nude mice by oral gavage at 0.3, 1, 3, 10, 30 mg/kg. Plasma and pancreas were sampled from 5 mice per group following a single oral administration at 1, 4, 8, 12, 24 h post-dose.
# [2] = Kinetic aqueous solubility in PBS pH 7.4; format: physicochemical; conditions: phosphate buffered saline (PBS), 25 °C, aqueous buffer, kinetic from dmso stock
# Experimental: These promising compounds were evaluated in in vitro ADME assays (aqueous solubility, Caco-2 permeability, plasma protein binding, and hepatocyte stability) to determine their drug-like properties (Table 4).
# Verapamil hydrochloride and tamoxifen were obtained from Sigma-Aldrich. All solvents were obtained from commercial sources and used without further purification. Hydrophilic PVDF 96-well filter plates ([…]), 2 mL 96-well assay block, and 96-well UV plates were purchased from Fisher Scientific.Test compound was prepared as a 10 mM stock solution in DMSO. Aqueous suspensions of test compound at 100 µM were prepared in assay buffers. The composition of phosphate buffered saline (PBS) is 0.1 M sodium phosphate, and 0.15 M sodium chloride, adjusted to pH 7.4. The suspensions were agitated at 200 rpm for 1 hour at 25 °C. The suspensions were transferred to a 0.45 µm hydrophilic PVDF 96-well filter plate mounted on a fresh 2 mL 96-well plate and were filtered by centrifugation at 3,000 rpm for 1 min. 150 µL of filtrates were transferred to 96-well UV plate for absorbance measurement. In order to determine the optimal wavelength for detection (λmax), the absorbance spectrum of the DMSO stock solution for each compound was recorded over a broad range of wavelengths (260–450 nm) using a UV/VIS plate reader (Molecular Devices Spectramax i3). To prepare calibration curves, a 1:1 serial dilution was performed on each compound starting at 100 µM to generate calibration solutions with concentrations ranging from […] to 100 µM. The UV absorbance of calibrants was measured at λmax for each compound. Concentration of each compound in the assay solution was calculated using the corresponding calibration curve. All assay measurements were performed in duplicate. […]
# [3] = Caco-2 permeability / efflux; format: in vitro ADME; conditions: human, Caco-2, pH 7.4; for efflux ratio at 120 min, 5 µM: Papp (B-to-A) / Papp (A-to-B)
# Experimental: P-gp Substrate Assessment using Caco-2 Monolayers
# Caco-2 cells (clone C2BBe1) were obtained from American Type Culture Collection (Manassas, VA). Hanks’ balanced salt solution, valspodar and lucifer yellow were obtained from Sigma-Aldrich (St. Louis, MO). All solvents were obtained from commercial sources and used without further purification. Cell monolayers were grown to confluence on collagen-coated, microporous membranes in 12-well assay plates. Details of the plates and their certification are shown below. The permeability assay buffer was Hanks’ balanced salt solution (HBSS) containing 10 mM HEPES and 15 mM glucose at a pH of 7.4. The buffer in the receiver chamber also contained 1% bovine serum albumin. The dosing solution concentration was 5 μM of test article in the assay buffer +/- 1 μM valspodar. Cells were first pre-incubated for 30 minutes with HBSS containing +/- 1 μM valspodar. Cell monolayers were dosed on the apical side (A-to-B) or basolateral side (B-to-A) and incubated at 37°C with 5% CO2 in a humidified incubator. Samples were taken from the donor and receiver chambers at 120 minutes. Each determination was performed in duplicate. The flux of lucifer yellow was also measured post-experimentally for each monolayer to ensure no damage was inflicted to the cell monolayers during the flux period. All samples were assayed by LC-MS/MS using electrospray ionization.
# LC-MS/MS Analysis using the PE Sciex API 4000 mass spectrometer […]
# Column: Waters ACQUITY UPLC BEH Phenyl 30 × 2.1 mm, 1.7 µm
# Mobile Phase Buffer: 25 mM ammonium formate buffer, pH 3.5
# Aqueous Reservoir (A): 90% water, 10% buffer
# Organic Reservoir (B): 90% acetonitrile, 10% buffer
# Total Run Time: 1.00 minute
# Autosampler: 10 µL injection volume
# Wash1: water/methanol/2-propanol:1/1/1; with 0.2% formic acid
# Wash2: 0.1% formic acid in water
# Instrument: PE SCIEX API 4000
# Interface: Turbo Ionspray
# Mode: Multiple Reaction Monitoring (Negative ion mode)
# Method: 1.0 minute duration
# Mass Spectrometer Settings
# Data Analysis and Calculations
# The apparent permeability (Papp) and percent recovery were calculated as follows:
# Papp = (dCr/dt) × Vr/(A × CA)
# Percent recovery = 100 × ((V × Cfinal) + (V × Cfinal)) / (V × C ) […]
# dCr/dt is the slope of the cumulative receiver concentration versus time in µM s-1;
# Vr is the volume of the receiver compartment in cm3;
# Vd is the volume of the donor compartment in cm3;
# A is the area of the insert (1.13 cm2 for 12-well);
# CA is the average of the nominal dosing concentration and the measured 120 minute donor concentration in μM;
# CN is the nominal concentration of the dosing solution in μM;
# Cfinal is the cumulative receiver concentration in μM at the end of the incubation period; […]
# Cd is the concentration of the donor in μM at the end of the incubation period.
# Efflux ratio (ER) is defined as Papp (B-to-A) / Papp (A-to-B). […]
SMILES,AUC(0-t) [1],Cmax [1],bioavailability [1],half-life [1],solubility kinetic at 1 h [2],"Papp A→B at 120 min, 5 µM [3]","efflux ratio at 120 min, 5 µM [3]"
Cc1nc(N)c2c(-c3ccc(NC(=O)[C@H](O)c4cccc(F)c4)cc3C)cn(C)c2n1 [Compound 24],37500 ng·h/mL,13100 ng/mL,77%,126 min,76 µM,9 ×10⁻⁶ cm/s,5.2
Cc1nc(N)c2c(-c3ccc(NC(=O)[C@H](O)c4cccc(C(F)(F)F)c4)cc3C)cn(C)c2n1 [Compound 26],126000 ng·h/mL,17200 ng/mL,82%,210 min,19 µM,21 ×10⁻⁶ cm/s,2.2
Cc1nc(N)c2c(-c3ccc(NC(=O)[C@H](O)c4cccc(Cl)c4)cc3C)cn(C)c2n1 [Compound 28],65800 ng·h/mL,14100 ng/mL,84%,144 min,35 µM,23 ×10⁻⁶ cm/s,1.9
Cc1nc(N)c2c(-c3ccc(NC(=O)[C@H](O)c4cc(F)cc(F)c4)cc3C)cn(C)c2n1 [Compound 38],28900 ng·h/mL,8600 ng/mL,94%,120 min,19 µM,19 ×10⁻⁶ cm/s,1.9
Cc1nc(N)c2c(-c3ccc(NC(=O)[C@H](O)c4cc(F)cc(C(F)(F)F)c4)cc3C)cn(C)c2n1 [Compound 39],86400 ng·h/mL,14300 ng/mL,78%,174 min,10 µM,16 ×10⁻⁶ cm/s,2
Cc1cc(F)cc([C@@H](O)C(=O)Nc2ccc(-c3cn(C)c4nc(C)nc(N)c34)c(C)c2)c1 [Compound 41],26000 ng·h/mL,12500 ng/mL,40%,162 min,24 µM,20 ×10⁻⁶ cm/s,2.5
Cc1nc(N)c2c(-c3ccc(NC(=O)[C@H](O)c4cccc(Cl)c4)cc3F)cn(C)c2n1 [Compound 48],10900 ng·h/mL,3020 ng/mL,70%,126 min,14 µM,24 ×10⁻⁶ cm/s,1.6
Cc1nc(N)c2c(-c3ccc(NC(=O)[C@H](O)c4cccc(F)c4)c(F)c3C)cn(C)c2n1 [Compound 65],40100 ng·h/mL,8150 ng/mL,129%,132 min,58 µM,26 ×10⁻⁶ cm/s,1.6
Cc1nc(N)c2c(-c3cc(F)c(NC(=O)[C@H](O)c4cccc(F)c4)cc3C)cn(C)c2n1 [Compound 66],39800 ng·h/mL,9610 ng/mL,126%,120 min,61 µM,24 ×10⁻⁶ cm/s,1.5
"Cc1nc(N)c2c(-c3ccc(NC(=O)[C@H](O)c4cccc(F)c4)c(F)c3F)cn(C)c2n1 [Compound 70, (R)-N-(4-(4-amino-2,7-dimethyl-7H-pyrrolo[2,3-d]pyrimidin-5-yl)-2,3-difluorophenyl)-2-(3-fluorophenyl)-2-hydroxyacetamide]",32300 ng·h/mL,9720 ng/mL,117%,120 min,66 µM,29 ×10⁻⁶ cm/s,1.7
